Legend:
[1] = system: fractalkine mRNA; test: RNase protection assay (RPA) for fractalkine mRNA in HUVECs; assay type: cell-based, human
Procedure: (§1) Recombinant human TNF-α was purchased from R&D Systems (Minneapolis, Minn.). Anti-fractalkine antibody was purchased from Torrey Pines BioLabs (Houston, Tex.). LPS was purchased from Sigma-Aldrich (St. Louis, Mo.). LA (Thioctacid 600®) was obtained from VIATRIS GmbH & Co. KG (Frankfurt, Germany). Calcein-AM was purchased from Molecular Probe (Eugene, Oreg.). Media, sera, and other biochemical reagents were purchased from Sigma-Aldrich, unless otherwise specified. HUVECs were prepared from human umbilical cords by collagenase digestion as previously described (Kim W et al., FASEB J. 2003 17: 1337-19395. Homogeneity of endothelial cells in cultures was confirmed by the presence of factor VIII using immunofluorescence method. HUVECs were maintained in M-199 medium supplemented with 20% (vol/vol) fetal bovine serum at 37° C. in a 5% CO2atmosphere. The primary cultured cells used in this study were between 2 and 4 passages.
A part of cDNA of human fractalkine (nucleotides 482-893, GenBank accession NM002996) was amplified by PCR and subcloned into pBluescript II KS+ (Stratagene, La Jolla, Calif.). After linearizing with EcoRI, ^32P-labeled antisense RNA probes were synthesized by in vitrotranscription using T7 polymerase (Ambion Maxiscript kit; Ambion, Austin, Tex.) and gel purified. RPA was performed on total RNAs using the Ambion RPA kit (Ambion, Austin, Tex.). An antisense RNA probe of human cyclophilin (nucleotides 135-239, GenBank accession X52856) was used as an internal control for RNA quantification.

[2] = system: fractalkine protein; test: Western blot analysis of fractalkine protein in HUVECs; assay type: cell-based, human
Procedure: as §1
Western blot analyses were performed as previously described (Aim S Y et al., Am J Pathol 2004 164: 1663-1672). Samples were mixed with sample buffer, boiled for 10 minutes, separated by SDS-PAGE electrotransfered to nitrocellulose membranes. The nitrocellulose membranes were blocked by incubation in blocking buffer, incubated with anti-fractalkine monoclonal antibody, washed, and incubated with horseradish peroxidase-conjugated secondary antibody. […]

[3] = system: serum TNF-α; test: Serum TNF-α by ELISA after intravenous LPS in rats; assay type: in vivo, rat; conditions: for serum level of TNF-α: rats, LPS 10 mg/kg intravenous by tail vein
Procedure: (§2) Blood samples (0.5 ml) were taken from rats at 0, 1, 2, 3, and 4 hours after the administration of LPS (10 mg/kg) or vehicle. Serum concentrations of TNF-α and IL-1β were determined by using ELISA kits (Endogen, Woburn, Mass.).
(§3) Serum concentrations of TNF-α and IL-1β were determined by using Enzyme-Linked Immunosorbent Assay (ELISA) Kits (Endogen, Woburn, Mass.). […] Thus, we used TNF-α- and IL-1β in this experiment.
(§4) Inbred male Sprague-Dawley rats (150-200 g) were obtained from Orient (Charles River Korea, Seoul, Korea) and were maintained on standard laboratory chow and water ad libitum. All animal studies were reviewed and approved by the Institutional Animal Care and Use Committee of Chonbuk National University Medical School. The rats (180-220 g) were divided into 3 groups; control (n=6), LPS (10 mg/kg) (n=6), and LPS (10 mg/kg) plus LA (10 mg/kg/day) (n=6). Control buffer and LPS were injected intravenously through the tail vein. LA was injected intraperitoneally once per day for three days prior to LPS administration. At 12 hours postinjection of vehicle or LPS, rats were anesthetized with ketamine (100 mg/kg) and xylazine (10 mg/kg), and subsequently sacrificed by cervical dislocation. Heart and jejunum were harvested for RNase protection assay, Western blot, and immunohistochemistry.

[4] = system: adhesion of monocytes to HUVECs; test: Monocyte adhesion assay on HUVECs; assay type: cell-based, human; conditions: for increase in the adhesion of monocytes compared to treatment with control buffer: stimulation of HUVECs for 6 hours, TNF-α 10 ng/ml or IL-1β 15 ng/ml
Source text: Human peripheral blood monocytes were isolated from fresh blood of healthy volunteers by Ficoll-Paque gradient centrifugation. The study protocol and informed consent forms were approved by the Chonbuk. National University Hospital Review Board. Monocytes were isolated by negative selection using magnetic beads (Miltenyi Biotec, Bergisch Gladbach, Germany) (Ancuta P et al., J Exp Med 2003 197: 1701-1707). The purity of the monocyte fraction was 93-95% as determined by staining with anti-CD14, anti-CD33, anti-CD16b, and anti-CD56 mAbs and FACScan analysis (Becton Dickinson, Franklin Lakes, N.J.). Monocyte-endothelial adhesion was determined by fluorescent labeling of monocytes by a method described previously (Kim W. et al., Arterioscler Thromb Vase Biol 2003 23: 1377-1383). A number of monocytes adhered to HUVECs was expressed as percent calculated by the formula: % signal/total signal).

[5] = system: serum IL-1β; test: Serum IL-1β by ELISA after intravenous LPS in rats; assay type: in vivo, rat; conditions: for serum level of IL-1β: rats, LPS 10 mg/kg intravenous by tail vein
Procedure: as §2, §3, §4

[6] = system: fractalkine expression in rat heart; test: Immunohistochemical analysis of fractalkine expression in heart of LPS-induced endotoxemia rats; assay type: in vivo; conditions: LA 10 mg/kg/day for 3 days before LPS 10 mg/kg i.v., 12 hours
Procedure: as §4
(§5) After sacrifice, the hearts and jejunums were quickly excised, rinsed with PBS, and frozen in OCT in methyl-butane on dry ice. Frozen tissue blocks were sectioned at […], and 8-12 sections of heart or jejunum from each rat were incubated with anti-fractalkine antibody at 4 C overnight. […] Fractalkine expression was semi-quantitated by grading the degree of immunostaining (very strong=5, strong=4, moderate=3, weak=2, none=1). […]

[7] = system: SP-1; test: EMSA for SP-1 binding activity in nuclear extracts of HUVECs; conditions: FIG. 5b
Procedure: Briefly, the cells were lysed in a hypotonic buffer (10 mmol/L HEPES, pH 7.9, 1.5 mmol/L MgCl2, 10 mmol/L KCl, 0.5 mmol/L DTT, 0.5 mmol/L PMSF) containing 0.6% NP-40 and centrifuged at 4000 rpm for 15 min. […] Seventy five microliter of storage buffer (20 mmol/L HEPES, pH7.9, 100 mmol/L NaCl, 20% glycerol, 0.2 mmol/L EDTA, 0.5 mmol/L PMSF, 0.5 mmol/L DTT) was added, agitated for 10 sec by vortexing, and centrifused at 14,000 rpm for 20 min. […] EMSA for SP-1 protein was performed with biotin-labeled SP-1 binding site oligomer 5′-[sequence]

[8] = system: fractalkine expression in rat small intestine; test: Immunohistochemical analysis of fractalkine expression in small intestine of LPS-induced endotoxemia rats; assay type: in vivo; conditions: LA pretreatment before LPS, 12 hours, FIGS. 7a, 7b
Procedure: as §4, §5

[9] = system: NF-κB (p65/p50); test: EMSA for NF-κB binding activity in nuclear extracts of HUVECs; assay type: cell-based, human
Procedure: EMSA for NF-κB proteins was performed as previously described (Kim I et al., J Biol Chem 2001 276: 7614-7620). Briefly, the cells were lysed in a hypotonic buffer (10 mmol/L HEPES, pH 7.9, 1.5 mmol/L MgCl2, 10 mmol/L KCl, 0.5 mmol/L DTT, 0.5 mmol/L PMSF) containing 0.6% NP-40 and centrifuged at 4000 rpm for 15 min. The pellet was lysed in […] of a high salt buffer (20 mmol/L HEPES, pH 7.9, 420 mmol/L NaCl, 25% glycerol, 1.5 mmol/L MgCl2, 0.2 mmol/L EDTA, 0.5 mmol/L PMSF, 0.5 mmol/L DTT) for 20 min on ice. Seventy five microliter of storage buffer (20 mmol/L HEPES, pH7.9, 100 mmol/L NaCl, 20% glycerol, 0.2 mmol/L EDTA, 0.5 mmol/L PMSF, 0.5 mmol/L DTT) was added, agitated for 10 sec by vortexing, and centrifused at 14,000 rpm for 20 min. Nuclear extracts ([…]) were incubated with approximately 20,000 cpm of ^32P-labeled NF-κB binding site oligomer 5′-[…]-3′ (SEQ ID NO: 1) (Santa Cruz Biotechnology, Santa Cruz, Calif.) for […] at 20 C. EMSA for SP-1 protein was performed with biotin-labeled SP-1 binding site oligomer 5′-[…] (SEQ ID NO: 2) and signals were detected by chemiluminescent imaging according to the manufacturer's protocol (EMSA Gel-Shift. Kit; Panomics, Redwood City, Calif.).
We previously reported that NF-κB is involved in TNF-α induced fractalkine expression in HUVECs (Ahn S Y et al., Am J Pathol 2004 164: 1663-1672). […]

O=C(O)CCCCC1CCSS1 (stereo not shown) [LA, 1,2-dithiolane-3-pentanoic acid]
suppression of IL-1β-induced expression of fractalkine mRNA ([1]; IL-1β 15 ng/ml, LA 4 mmol/L, FIG. 4b): 70-80%
effect on expression of fractalkine mRNA induced by TNF-α and IL-1β together ([1]; TNF-α 10 ng/ml and IL-1β 15 ng/ml together, FIG. 4c): suppressed
suppression of TNF-α-induced expression of fractalkine mRNA ([1]; TNF-α 10 ng/ml, LA 4 mmol/L, FIG. 4a): 70-80%
effect on TNF-α- and/or IL-1β-induced expression of fractalkine protein [2]: decreased
effect on LPS-increased serum TNF-α ([3]; rats pretreated with LA, then LPS, FIG. 1a): significantly inhibited
decrease in monocyte adhesion to IL-1β-stimulated HUVECs ([4]; IL-1β 15 ng/ml, FIG. 6a, 6b): 76%
decrease in monocyte adhesion to TNF-α-stimulated HUVECs ([4]; TNF-α 10 ng/ml, FIG. 6a, 6b): 63%
effect on HUVEC adhesiveness for monocytes, substance alone ([4]; unstimulated HUVECs): no effects
effect on LPS-increased serum IL-1β ([5]; rats pretreated with LA, then LPS, FIG. 1b): significantly inhibited
effect on LPS-induced fractalkine expression in arterial endothelial cells, endocardium, and endocardial surface of cardiac valves [6]: dramatically suppressed
effect on TNF-α- and/or IL-1β-induced SP-1 binding activity [7]: decreased
effect on basal SP-1 binding activity ([7]; LA alone): no effect
effect on LPS-induced fractalkine expression in arterial endothelial cells and villous endothelium [8]: dramatically suppressed
effect on basal NF-κB (p65/p50) binding activity ([9]; LA alone): no effect
effect on TNF-α- and/or IL-1β-induced NF-κB (p65/p50) binding activity ([9]; TNF-α 10 ng/ml and/or IL-1β 15 ng/ml, LA 4 mmol/L, FIG. 5a): suppressed

lipopolysaccharide [LPS]
serum level of TNF-α ([3]; 3 hours after LPS): 975 ± 121 pg/mL
serum level of TNF-α ([3]; 4 hours after LPS): 0 pg/mL
serum level of IL-1β ([5]; 1 hour after LPS): 104 ± 20 pg/mL
serum level of IL-1β ([5]; 2 hours after LPS): 232 ± 45 pg/mL
serum level of IL-1β ([5]; 3 hours after LPS): 212 ± 19 pg/mL

IL-1β: proinflammatory cytokine used to stimulate HUVECs
increase in the adhesion of monocytes compared to treatment with control buffer [4]: 4 fold

TNF-α
increase in the adhesion of monocytes compared to treatment with control buffer [4]: 5 fold

Reference: patent US20080146650A1, “PHARMACEUTICAL COMPOSITION COMPRISING A-LIPOIC ACID FOR INFLAMMATORY DISEASES” (priority 2005, published 2008)
